In experiment [1] the test system is L1210 Leukemia. Put plainly: Conjunctive therapy of L1210 leukemia in vivo (survival). The settings on record: BDF1 male mice, 10^5 L1210 cells i.p. day 0, control 7.6±0.5. The procedure:
Groups of 5 mice (BDF1 male) were inoculated i.p. with 10^5 L1210 leukemia cells on day 0. Vinblastine was administered at 0.5 mg/kg, i.p., on day 3. The compound N,N'-bis(3-(ethylamino) propyl]-1,7-heptanediamine was administered at 5 mg/kg, every 3 hours, 4 times per day, on days 4 and 5. Control group received no treatment after inoculation. Relative survival time was determined and expressed as % T/C (mean survival time treated/mean survival time control x 100). The results of these studies are presented in Table 1. Table 1

Experiment [2] deals with MCA38 (mouse colon adenocarcinoma). Put plainly: Cell viability by colorimetric MTT assay after 96 hour incubation, MCA38 cells. The class given is cell-based. The following applies: for IC50: Mus musculus, 96 h. As to the method:
(§1) In addition, the Fractional Inhibitory Concentration (FIC) for the various treatments was calculated. FIC's are an accepted measurement of synergy [Middleton and Westmacott, J.Antimicrobial Chemother. […] For two interacting drugs, the sum of the FIC's of each of the treatments expresses the extent of the synergistic interaction.
(§2) Where FIC is less than 1, there is synergy between the two treatments, where FIC is 1, there is no synergy (additive effect). The smaller the value for FIC, the greater the synergistic interaction.

In experiment [3] the test system is HeLa cells. Put plainly: Cell viability by colorimetric MTT assay after 96 hour incubation, HeLa cells. Format: cell-based. The settings on record: for IC50: Homo sapiens, HeLa. As to the method:
as §1, §2
(In general: Tetrazolium assays rely on reduction of a dye to a coloured formazan, in cell work by metabolically active cells.)

Like-named read-outs stand apart in the source and are kept apart here. Marks after values point to notes of the source that are not given here.

A word on the IC50: it is the concentration that inhibits the measured activity by half.

Take `CC[C@]1(O)C[C@@H]2CN(CCc3c([nH]c4ccccc34)[C@@](C(=O)OC)(c3cc4c(cc3OC)N(C)[C@H]3[C@@](O)(C(=O)OC)[C@H](OC(C)=O)[C@]5(CC)C=CCN6CC[C@]43[C@@H]65)C2)C1` [Vinblastine, vinblastine]: the “Mean Survival Time” value in experiment [1] (Vinblastine 0.5 mg/kg i.p. day 3) worked out at 10.0 ± 0.7 days. For the same molecule, the half-inhibitory concentration (IC50) in experiment [2] (MCA 38 cells, 28,314 at 0 µg/mL (vinblastine alone), read-out: IC50 Vinblastin) is 0.0595 µg/mL; in experiment [2] (MCA 38 cells, 28,314 at 0.1563 µg/mL, read-out: IC50 Vinblastin) it was 0.0548 µg/mL; in experiment [2] (MCA 38 cells, 28,314 at 0.3125 µg/mL, read-out: IC50 Vinblastin), 0.043 µg/mL; in experiment [2] (MCA 38 cells, 28,314 at 0.625 µg/mL, read-out: IC50 Vinblastin), 0.033 µg/mL; in experiment [2] (MCA 38 cells, 28,314 at 1.25 µg/mL, read-out: IC50 Vinblastin), 0.025 µg/mL; in experiment [2] (MCA 38 cells, 28,314 at 2.5 µg/mL, read-out: IC50 Vinblastin), 0.015 µg/mL. Also, the IC50 in experiment [2] (MCA 38 cells, 28,314 at 5.0 µg/mL, read-out: IC50 Vinblastin) is 0.003 µg/mL; in experiment [3] (96 h, 28,314 at 0 µg/mL (vinblastine alone), read-out: IC50 Vinblastin), 1.6 ng/mL; in experiment [3] (96 h, 28,314 at 0.1563 µg/mL, read-out: IC50 Vinblastin), 1.33 ng/mL; in experiment [3] (96 h, 28,314 at 0.3125 µg/mL, read-out: IC50 Vinblastin), 1.33 ng/mL; in experiment [3] (96 h, 28,314 at 0.625 µg/mL, read-out: IC50 Vinblastin) it was 1.19 ng/mL; in experiment [3] (96 h, 28,314 at 1.25 µg/mL, read-out: IC50 Vinblastin), 1.17 ng/mL. The IC50 was determined as 0.63 ng/mL in experiment [3] (96 h, 28,314 at 2.5 µg/mL, read-out: IC50 Vinblastin); 0.24 ng/mL in experiment [3] (96 h, 28,314 at 5 µg/mL, read-out: IC50 Vinblastin); 0.11 ng/mL in experiment [3] (96 h, 28,314 at 10 µg/mL, read-out: IC50 Vinblastin); 0.09 ng/mL in experiment [3] (96 h, 28,314 at 20 µg/mL, read-out: IC50 Vinblastin).

For `Nc1ccn([C@@H]2O[C@H](CO)[C@@H](O)[C@@H]2O)c(=O)n1` [AraC, cytarabine], the 50% inhibitory concentration (IC50) in experiment [2] (MCA 38 cells, 28,314 at 0 µg/mL (AraC alone), read-out: IC50 AraC) came out at 0.66 µg/mL; in experiment [2] (MCA 38 cells, 28,314 at 0.1563 µg/mL, read-out: IC50 AraC), 0.596 µg/mL; in experiment [2] (MCA 38 cells, 28,314 at 0.3125 µg/mL, read-out: IC50 AraC) it was 0.488 µg/mL; in experiment [2] (MCA 38 cells, 28,314 at 0.625 µg/mL, read-out: IC50 AraC), 0.36 µg/mL; in experiment [2] (MCA 38 cells, 28,314 at 1.25 µg/mL, read-out: IC50 AraC), 0.23 µg/mL; in experiment [2] (MCA 38 cells, 28,314 at 2.5 µg/mL, read-out: IC50 AraC), 0.071 µg/mL. The IC50 stood at 1020 ng/mL in experiment [3] (96 h, 28,314 at 0 µg/mL (AraC alone), read-out: IC50 AraC); 630 ng/mL in experiment [3] (96 h, 28,314 at 0.1563 µg/mL, read-out: IC50 AraC); 600 ng/mL in experiment [3] (96 h, 28,314 at 0.3125 µg/mL, read-out: IC50 AraC); 530 ng/mL in experiment [3] (96 h, 28,314 at 0.625 µg/mL, read-out: IC50 AraC); 370 ng/mL in experiment [3] (96 h, 28,314 at 1.25 µg/mL, read-out: IC50 AraC); 350 ng/mL in experiment [3] (96 h, 28,314 at 2.5 µg/mL, read-out: IC50 AraC). The half-maximal inhibitory concentration (IC50) in experiment [3] (96 h, 28,314 at 5 µg/mL, read-out: IC50 AraC) was 220 ng/mL; in experiment [3] (96 h, 28,314 at 10 µg/mL, read-out: IC50 AraC), 150 ng/mL; in experiment [3] (96 h, 28,314 at 20 µg/mL, read-out: IC50 AraC) it was 140 ng/mL; in experiment [3] (96 h, 28,314 at 40 µg/mL, read-out: IC50 AraC) it was 140 ng/mL; in experiment [3] (96 h, 28,314 at 80 µg/mL, read-out: IC50 AraC) it was 140 ng/mL.

Turning to `N.N.[Cl][Pt][Cl]` [Cisplatin], the “IC50 Cisplatin” value is recorded as 0.847 µg/mL in experiment [2] (MCA 38 cells, 28,314 at 0 µg/mL (cisplatin alone)); 0.58 µg/mL in experiment [2] (MCA 38 cells, 28,314 at 0.2 µg/mL); 0.387 µg/mL in experiment [2] (MCA 38 cells, 28,314 at 0.39 µg/mL); 0.376 µg/mL in experiment [2] (MCA 38 cells, 28,314 at 0.78 µg/mL); 0.276 µg/mL in experiment [2] (MCA 38 cells, 28,314 at 1.56 µg/mL); 0.177* µg/mL in experiment [2] (MCA 38 cells, 28,314 at 3.125 µg/mL). Further, the “IC50 Cisplatin” value in experiment [2] (MCA 38 cells, 28,314 at 6.25 µg/mL) came to 0.165 µg/mL; in experiment [2] (MCA 38 cells, 28,314 at 12.5 µg/mL) it was 0.053 µg/mL; in experiment [3] (28,314 at 0 µg/mL (cisplatin alone)) it was 0.359 µg/mL; in experiment [3] (28,314 at 0.39 µg/mL), 0.336 µg/mL; in experiment [3] (28,314 at 0.78 µg/mL), 0.276 µg/mL; in experiment [3] (28,314 at 1.563 µg/mL), 0.186 µg/mL. The “IC50 Cisplatin” value was 0.130 µg/mL in experiment [3] (28,314 at 3.125 µg/mL); 0.088 µg/mL in experiment [3] (28,314 at 6.25 µg/mL); 0.074* µg/mL in experiment [3] (28,314 at 12.5 µg/mL); 0.068 µg/mL in experiment [3] (28,314 at 25 µg/mL); 0.068 µg/mL in experiment [3] (28,314 at 50 µg/mL); 0.057 µg/mL in experiment [3] (28,314 at 100 µg/mL).

As for `COc1cccc2c1C(=O)c1c(O)c3c(c(O)c1C2=O)C[C@@](O)(C(=O)CO)C[C@@H]3O[C@H]1C[C@H](N)[C@H](O)[C@H](C)O1` [Adriamycin, adriamycin], the IC50 in experiment [2] (MCA 38 cells, 28,314 at 0 µg/mL (adriamycin alone), read-out: IC50 Adriamycin) was 0.0079 µg/mL; in experiment [2] (MCA 38 cells, 28,314 at 0.39 µg/mL, read-out: IC50 Adriamycin), 0.0075 µg/mL; in experiment [2] (MCA 38 cells, 28,314 at 0.78 µg/mL, read-out: IC50 Adriamycin) it was 0.0073 µg/mL; in experiment [2] (MCA 38 cells, 28,314 at 1.563 µg/mL, read-out: IC50 Adriamycin), 0.007 µg/mL; in experiment [2] (MCA 38 cells, 28,314 at 3.125 µg/mL, read-out: IC50 Adriamycin) it was 0.0063 µg/mL; in experiment [2] (MCA 38 cells, 28,314 at 6.25 µg/mL, read-out: IC50 Adriamycin) it was 0.0025 µg/mL. In addition, the IC50 came to 0.0018 µg/mL in experiment [2] (MCA 38 cells, 28,314 at 12.5 µg/mL, read-out: IC50 Adriamycin); 8.6 ng/mL in experiment [3] (96 h, 28,314 at 0 µg/mL (adriamycin alone), read-out: IC50 Adriamycin); 6.7 ng/mL in experiment [3] (96 h, 28,314 at 0.2 µg/mL, read-out: IC50 Adriamycin); 5.8 ng/mL in experiment [3] (96 h, 28,314 at 0.39 µg/mL, read-out: IC50 Adriamycin); 4.8 ng/mL in experiment [3] (96 h, 28,314 at 0.78 µg/mL, read-out: IC50 Adriamycin); 1.5 ng/mL in experiment [3] (96 h, 28,314 at 1.5625 µg/mL, read-out: IC50 Adriamycin).

As for `CCNCCCNCCCCCCCNCCCNCC` [Compound 28,314, N,N'-Bis[3-(ethylamino)propyl]-1,7-heptanediamine], the “Mean Survival Time” value in experiment [1] (28,314 5 mg/kg every 3 hours, 4 times per day (20 mg/Kg/day), days 4,5) was 12.6 ± 0.9 days. Further, the IC50 in experiment [2] (MCA 38 cells, Table 2 (cisplatin series), read-out: IC50 28,314 alone) is 17.7 µg/mL; in experiment [2] (MCA 38 cells, Table 3 (adriamycin series), read-out: IC50 28,314 alone), 25 µg/mL; in experiment [2] (MCA 38 cells, Table 4 (AraC series), read-out: IC50 28,314 alone), 3.54 µg/mL; in experiment [2] (MCA 38 cells, Table 5 (vinblastine series), read-out: IC50 28,314 alone), 10 µg/mL; in experiment [3] (96 h, Table 6 (cisplatin series), read-out: IC50 28,314 alone), about 200000 ng/mL; in experiment [3] (96 h, Table 7 (adriamycin series), read-out: IC50 28,314 alone) it was 1590 ng/mL. Further, the IC50 in experiment [3] (96 h, Table 8 (AraC series), read-out: IC50 28,314 alone) is about 160000 ng/mL.

(Values after patent EP0490380B1, “Use of N,N'-bis 3-(ethylamino)propyl -1,7-heptanediamine and a cytotoxic agent” (MERRELL PHARMACEUTICALS INC., priority 1990, dated 1992).)
